Here are results for eight compounds from ChEMBL document CHEMBL1145395, “De novo design of selective antibiotic peptides by incorporation of unnatural amino acids” (J Med Chem, 2007).

A word on the MIC: it is the least concentration at which growth counts as inhibited. The low end stands for a more susceptible organism, the high end for a less susceptible organism.

Converted amounts (≈) assume the structure as drawn. The source made the active and inactive calls. The rule behind the calls is not given here. Non-standard residues stand in square brackets, D forms with d. Residues, ends and D or L forms follow the SMILES beside them. ξ: configuration not given here. Pro(3ξ,4ξ-(CH2)4) = O=C(O)[C@H]1NCC2CCCCC21; Oic = O=C(O)[C@@H]1C[C@@H]2CCCC[C@@H]2N1; Tic = O=C(O)[C@@H]1Cc2ccccc2CN1; Ahx = NCCCCCC(=O)O; GABA = NCCCC(=O)O

Data set [1] relates to Salmonella typhimurium. The experiment in a line: Antibacterial activity against Salmonella Typhimurium ATCC 13311. Format: functional, Salmonella enterica subsp. enterica serovar Typhimurium. The conditions noted are these: Salmonella enterica.
A short description of data set [2]: Toxicity to mouse RBC assessed as hemolytic activity at 100 uM. Format: cell-based, Erythrocyte. The following applies: red blood cells, read-out: Activity.
Data set [3] relates to Mycobacterium. Description: Antibacterial activity against Mycobacterium ranae ATCC 110. The data set is classed as functional.
Data set [4] can be described thus: Toxicity to mouse RBC assessed as hemolytic activity at 25 uM. The data set is classed as cell-based, Erythrocyte. The following applies: red blood cells, read-out: Activity.
Data set [5] concerns Staphylococcus aureus. Description: Antibacterial activity against methicillin/gentamicin/tetracycline resistant Staphylococcus aureus ATCC 33592. The data set is classed as functional.
Data set [6] relates to Bacillus subtilis. Description: Antibacterial activity against Bacillus subtilis ATCC 43223. Format: functional.
Data set [7] concerns Mus musculus. The experiment in a line: Acute toxicity in mouse at 1 mg/kg, ip after 6 days. The data set is classed as organism-based. The arrangement: dose 1 mg/kg, route intraperitoneal. The conditions noted are these: in vivo, 144 h.
The subject of data set [8] is Mus musculus. Description: Acute toxicity in mouse at 25 mg/kg, ip after 6 days. Format: organism-based. On the set-up: dose 25 mg/kg, route intraperitoneal. The following applies: in vivo, 144 h.
For data set [9], the system named is Mus musculus. Description: Acute toxicity in mouse at 5 mg/kg, ip after 6 days. The following applies: in vivo, 144 h. On the set-up: dose 5 mg/kg, route intraperitoneal. The data set is classed as organism-based.

`CC(=O)NCC(=O)N[C@@H](Cc1ccccc1)C(=O)N1Cc2ccccc2C[C@H]1C(=O)NCC(=O)N[C@@H](CCCCN)C(=O)N1Cc2ccccc2C[C@H]1C(=O)NCC(=O)N[C@@H](Cc1ccccc1)C(=O)N1Cc2ccccc2C[C@H]1C(=O)NCC(=O)N[C@H](CCCCN)C(=O)N1Cc2ccccc2C[C@H]1C(=O)N[C@@H](CCCCN)C(=O)N[C@@H](CCCCN)C(=O)N[C@@H](CCCCN)C(=O)N[C@@H](CCCCN)C(N)=O`: the MIC is 100 µM (≈ 199 µg/mL) in data set [1], 30 µM (≈ 59.6 µg/mL) in data set [3] and 10 µM (≈ 19.9 µg/mL) in [6]. The hemolysis at 100 µM in data set [2] stood at 6%. Moreover, the hemolysis at 25 µM in [4] came to 4.9%. The outcome in data set [5] was inactive.

With `CC(=O)N[C@@H](Cc1ccccc1)C(=O)N1Cc2ccccc2C[C@H]1C(=O)N1CC2CCCCC2[C@H]1C(=O)N[C@@H](CCCCN)C(=O)N1Cc2ccccc2C[C@H]1C(=O)N1CC2CCCCC2[C@H]1C(=O)N[C@@H](Cc1ccccc1)C(=O)N1Cc2ccccc2C[C@H]1C(=O)N1CC2CCCCC2[C@H]1C(=O)N[C@@H](CCCCN)C(=O)N1Cc2ccccc2C[C@H]1C(=O)N[C@@H](CCCCN)C(=O)N[C@@H](CCCCN)C(=O)N[C@@H](CCCCN)C(=O)N[C@@H](CCCCN)C(=O)N[C@@H](CCCCN)C(=O)N[C@@H](CCCCN)C(N)=O` (stereo not given in full) (Ac-F[Tic][Pro(3ξ,4ξ-(CH2)4)]K[Tic][Pro(3ξ,4ξ-(CH2)4)]F[Tic][Pro(3ξ,4ξ-(CH2)4)]K[Tic]KKKKKK-NH2), the minimum inhibitory concentration (MIC) in data set [1] is 10 µM (≈ 24.7 µg/mL); in data set [3] it was 3 µM (≈ 7.41 µg/mL); in data set [5], 3 µM (≈ 7.41 µg/mL); in [6], 1 µM (≈ 2.47 µg/mL). In addition, in data set [2], the hemolysis at 100 µM was 41.3%. For the same compound, in data set [4], the hemolysis at 25 µM amounted to 33.5%.

For the compound `CC(=O)NCC(=O)N[C@@H](Cc1ccccc1)C(=O)N1Cc2ccccc2C[C@H]1C(=O)NCC(=O)NCC(=O)N[C@@H](CCCCN)C(=O)N1Cc2ccccc2C[C@H]1C(=O)NCC(=O)NCC(=O)N[C@@H](Cc1ccccc1)C(=O)N1Cc2ccccc2C[C@H]1C(=O)NCC(=O)NCC(=O)N[C@@H](CCCCN)C(=O)N1Cc2ccccc2C[C@H]1C(=O)N[C@@H](CCCCN)C(=O)N[C@@H](CCCCN)C(=O)N[C@@H](CCCCN)C(=O)N[C@@H](CCCCN)C(N)=O` (Ac-GF[Tic]GGK[Tic]GGF[Tic]GGK[Tic]KKKK-NH2), the MIC worked out at 100 µM (≈ 216 µg/mL) in [1], 30 µM (≈ 64.8 µg/mL) in [3] and 10 µM (≈ 21.6 µg/mL) in data set [6]. Besides, the hemolysis at 100 µM in data set [2] stood at 5.7%. Also, the hemolysis at 25 µM in [4] was found to be 3.8%. Moreover, in [5], the result was inactive.

As for `CC(=O)NCC(=O)N[C@@H](Cc1ccccc1)C(=O)N1Cc2ccccc2C[C@H]1C(=O)N1CC2CCCCC2[C@H]1C(=O)NCC(=O)N[C@@H](CCCCN)C(=O)N1Cc2ccccc2C[C@H]1C(=O)N1CC2CCCCC2[C@H]1C(=O)NCC(=O)N[C@@H](Cc1ccccc1)C(=O)N1Cc2ccccc2C[C@H]1C(=O)N1CC2CCCCC2[C@H]1C(=O)NCC(=O)N[C@@H](CCCCN)C(=O)N1Cc2ccccc2C[C@H]1C(=O)N[C@@H](CCCCN)C(=O)N[C@@H](CCCCN)C(=O)N[C@@H](CCCCN)C(=O)N[C@@H](CCCCN)C(=O)N[C@@H](CCCCN)C(N)=O` (stereo not given in full) (Ac-GF[Tic][Pro(3ξ,4ξ-(CH2)4)]GK[Tic][Pro(3ξ,4ξ-(CH2)4)]GF[Tic][Pro(3ξ,4ξ-(CH2)4)]GK[Tic]KKKKK-NH2), the hemolysis at 100 µM in data set [2] was determined as 24.9%. Also, in data set [4], the hemolysis at 25 µM worked out at 18.9%.

Regarding `CC(=O)NCCCCCC(=O)N[C@@H](Cc1ccccc1)C(=O)N1Cc2ccccc2C[C@H]1C(=O)N1CC2CCCCC2[C@H]1C(=O)NCCCCCC(=O)N[C@@H](CCCCN)C(=O)N1Cc2ccccc2C[C@H]1C(=O)N1CC2CCCCC2[C@H]1C(=O)NCCCCCC(=O)N[C@@H](Cc1ccccc1)C(=O)N1Cc2ccccc2C[C@H]1C(=O)N1CC2CCCCC2[C@H]1C(=O)NCCCCCC(=O)N[C@@H](CCCCN)C(=O)N1Cc2ccccc2C[C@H]1C(=O)N[C@@H](CCCCN)C(=O)N[C@@H](CCCCN)C(=O)N[C@@H](CCCCN)C(=O)N[C@@H](CCCCN)C(N)=O` (stereo not given in full) (Ac-[Ahx]F[Tic][Pro(3ξ,4ξ-(CH2)4)][Ahx]K[Tic][Pro(3ξ,4ξ-(CH2)4)][Ahx]F[Tic][Pro(3ξ,4ξ-(CH2)4)][Ahx]K[Tic]KKKK-NH2), the MIC in data set [1] was determined as 10 µM (≈ 26.7 µg/mL); in [3], 3 µM (≈ 8 µg/mL); in [5] it was 10 µM (≈ 26.7 µg/mL); in [6], 1 µM (≈ 2.67 µg/mL). Further, in [2], the hemolysis at 100 µM amounted to 44.7%. Besides, the hemolysis at 25 µM in data set [4] was found to be 26.6%.

`CC(=O)NCCCC(=O)N[C@@H](Cc1ccccc1)C(=O)N1Cc2ccccc2C[C@H]1C(=O)N1[C@H](C(=O)NCCCC(=O)N[C@@H](CCCCN)C(=O)N2Cc3ccccc3C[C@H]2C(=O)N2[C@H](C(=O)NCCCC(=O)N[C@@H](Cc3ccccc3)C(=O)N3Cc4ccccc4C[C@H]3C(=O)N3[C@H](C(=O)NCCCC(=O)N[C@@H](CCCCN)C(=O)N4Cc5ccccc5C[C@H]4C(=O)N[C@@H](CCCCN)C(=O)N[C@@H](CCCCN)C(=O)N[C@@H](CCCCN)C(=O)N[C@@H](CCCCN)C(N)=O)C[C@@H]4CCCC[C@@H]43)C[C@@H]3CCCC[C@@H]32)C[C@@H]2CCCC[C@@H]21` (Ac-[GABA]F[Tic][Oic][GABA]K[Tic][Oic][GABA]F[Tic][Oic][GABA]K[Tic]KKKK-NH2): the Activity result in data set [7], in data set [8] and in [9] was “Non-toxic” each time. Moreover, the hemolysis at 100 µM in data set [2] amounted to 10.8%. The hemolysis at 25 µM in data set [4] worked out at 1%.

As for `CC(=O)NCCCC(=O)N[C@@H](Cc1ccccc1)C(=O)N1Cc2ccccc2C[C@H]1C(=O)N1[C@H](C(=O)NCCCC(=O)N[C@@H](CCCCN)C(=O)N2Cc3ccccc3C[C@H]2C(=O)N2[C@H](C(=O)NCCCC(=O)N[C@@H](Cc3ccccc3)C(=O)N3Cc4ccccc4C[C@H]3C(=O)N3[C@H](C(=O)NCCCC(=O)N[C@@H](CCCCN)C(=O)N4Cc5ccccc5C[C@H]4C(=O)N[C@@H](CCCCN)C(=O)N[C@@H](CCCCN)C(=O)N[C@@H](CCCCN)C(=O)N[C@@H](CCCCN)C(=O)N[C@@H](CCCCN)C(N)=O)C[C@@H]4CCCC[C@@H]43)C[C@@H]3CCCC[C@@H]32)C[C@@H]2CCCC[C@@H]21` (Ac-[GABA]F[Tic][Oic][GABA]K[Tic][Oic][GABA]F[Tic][Oic][GABA]K[Tic]KKKKK-NH2), in [2], the hemolysis at 100 µM is 29.7%. Also, the hemolysis at 25 µM in data set [4] was 10.5%.

In the case of `NCCCC[C@H](NC(=O)[C@H](CCCCN)NC(=O)[C@H](CCCCN)NC(=O)[C@H](CCCCN)NC(=O)[C@@H]1Cc2ccccc2CN1C(=O)[C@H](CCCCN)NC(=O)CNC(=O)[C@@H]1C[C@@H]2CCCC[C@@H]2N1C(=O)[C@@H]1Cc2ccccc2CN1C(=O)[C@H](Cc1ccccc1)NC(=O)CNC(=O)[C@@H]1C[C@@H]2CCCC[C@@H]2N1C(=O)[C@@H]1Cc2ccccc2CN1C(=O)[C@H](CCCCN)NC(=O)CNC(=O)[C@@H]1C[C@@H]2CCCC[C@@H]2N1C(=O)[C@@H]1Cc2ccccc2CN1C(=O)[C@H](Cc1ccccc1)NC(=O)CN)C(N)=O` (H-GF[Tic][Oic]GK[Tic][Oic]GF[Tic][Oic]GK[Tic]KKKK-NH2), the hemolysis at 100 µM in data set [2] is 33.4%. In addition, the hemolysis at 25 µM in data set [4] came to 14.3%.
